Measured values from PubChem BioAssay (NCI).
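Tested at 5 concentrations; 48 h exposure; 96-well plates; endpoints linearly interpolated, else capped at highest concentration. The concentration for full growth arrest is given as TGI.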

Key:
Assay in all cases: inhibition of tumour cell growth, NCI panel, 48 h
786-0 renal = test system: 786-0 renal
A498 renal = test system: A498 renal
A549 NSCLC = test system: A549 NSCLC
ACHN renal = test system: ACHN renal
CAKI-1 renal = test system: CAKI-1 renal
CCRF-CEM leukemia = test system: CCRF-CEM leukemia
COLO 205 colon = test system: COLO 205 colon
DLD-1 colon = test system: DLD-1 colon
DMS 114 small cell lung = test system: DMS 114 small cell lung
DMS 273 small cell lung = test system: DMS 273 small cell lung
EKVX NSCLC = test system: EKVX NSCLC
HCC-2998 colon = test system: HCC-2998 colon
HCT-116 colon = test system: HCT-116 colon
HCT-15 colon = test system: HCT-15 colon
HL-60(TB) leukemia = test system: HL-60(TB) leukemia
HOP-18 NSCLC = test system: HOP-18 NSCLC
HOP-62 NSCLC = test system: HOP-62 NSCLC
HOP-92 NSCLC = test system: HOP-92 NSCLC
HT29 colon = test system: HT29 colon
IGROV1 ovarian = test system: IGROV1 ovarian
K-562 leukemia = test system: K-562 leukemia
KM12 colon = test system: KM12 colon
KM20L2 colon = test system: KM20L2 colon
LOX IMVI melanoma = test system: LOX IMVI melanoma
LXFL 529 NSCLC = test system: LXFL 529 NSCLC
M14 melanoma = test system: M14 melanoma
M19-MEL melanoma = test system: M19-MEL melanoma
MALME-3M melanoma = test system: MALME-3M melanoma
MOLT-4 leukemia = test system: MOLT-4 leukemia
NCI-H226 lung = test system: NCI-H226 lung
NCI-H23 lung = test system: NCI-H23 lung
NCI-H460 lung = test system: NCI-H460 lung
NCI-H522 lung = test system: NCI-H522 lung
OVCAR-3 ovarian = test system: OVCAR-3 ovarian
OVCAR-4 ovarian = test system: OVCAR-4 ovarian
OVCAR-5 ovarian = test system: OVCAR-5 ovarian
OVCAR-8 ovarian = test system: OVCAR-8 ovarian
RPMI-8226 leukemia = test system: RPMI-8226 leukemia
RXF 393 renal = test system: RXF 393 renal
SF-268 CNS = test system: SF-268 CNS
SF-295 CNS = test system: SF-295 CNS
SF-539 CNS = test system: SF-539 CNS
SK-MEL-2 melanoma = test system: SK-MEL-2 melanoma
SK-MEL-28 melanoma = test system: SK-MEL-28 melanoma
SK-MEL-5 melanoma = test system: SK-MEL-5 melanoma
SK-OV-3 ovarian = test system: SK-OV-3 ovarian
SN12C renal = test system: SN12C renal
SNB-19 CNS = test system: SNB-19 CNS
SNB-75 CNS = test system: SNB-75 CNS
SNB-78 CNS = test system: SNB-78 CNS
SR leukemia = test system: SR leukemia
SW-620 colon = test system: SW-620 colon
TK-10 renal = test system: TK-10 renal
U251 CNS = test system: U251 CNS
UACC-257 melanoma = test system: UACC-257 melanoma
UACC-62 melanoma = test system: UACC-62 melanoma
UO-31 renal = test system: UO-31 renal
XF 498 CNS = test system: XF 498 CNS

COc1cc(/C=C2\CCC(C)(CN(C)C)C2=O)cc(OC)c1OC (stereo not drawn)
TGI (786-0 renal): > 100 µM | TGI (A498 renal): > 100 µM | TGI (A549 NSCLC): > 100 µM | TGI (ACHN renal): > 100 µM | TGI (CAKI-1 renal): > 100 µM | TGI (CCRF-CEM leukemia): > 100 µM | TGI (COLO 205 colon): > 100 µM | TGI (DLD-1 colon): > 100 µM | TGI (DMS 114 small cell lung): > 100 µM | TGI (DMS 273 small cell lung): > 100 µM | TGI (EKVX NSCLC): > 88.3 µM | TGI (HCC-2998 colon): > 100 µM | TGI (HCT-116 colon): > 100 µM | TGI (HCT-15 colon): > 100 µM | TGI (HL-60(TB) leukemia): > 67.2 µM | TGI (HOP-18 NSCLC): > 100 µM | TGI (HOP-62 NSCLC): > 100 µM | TGI (HOP-92 NSCLC): > 100 µM | TGI (HT29 colon): > 100 µM | TGI (IGROV1 ovarian): > 100 µM | TGI (K-562 leukemia): > 100 µM | TGI (KM12 colon): > 100 µM | TGI (KM20L2 colon): > 100 µM | TGI (LOX IMVI melanoma): > 100 µM | TGI (LXFL 529 NSCLC): > 100 µM | TGI (M14 melanoma): > 100 µM | TGI (M19-MEL melanoma): > 100 µM | TGI (MALME-3M melanoma): > 100 µM | TGI (MOLT-4 leukemia): > 100 µM | TGI (NCI-H226 lung): > 100 µM | TGI (NCI-H23 lung): > 100 µM | TGI (NCI-H460 lung): > 100 µM | TGI (NCI-H522 lung): > 100 µM | TGI (OVCAR-3 ovarian): > 100 µM | TGI (OVCAR-4 ovarian): > 100 µM | TGI (OVCAR-5 ovarian): > 100 µM | TGI (OVCAR-8 ovarian): > 100 µM | TGI (RPMI-8226 leukemia): > 72.9 µM | TGI (RXF 393 renal): > 100 µM | TGI (SF-268 CNS): > 100 µM | TGI (SF-295 CNS): > 100 µM | TGI (SF-539 CNS): > 100 µM | TGI (SK-MEL-2 melanoma): > 100 µM | TGI (SK-MEL-28 melanoma): > 100 µM | TGI (SK-MEL-5 melanoma): > 100 µM | TGI (SK-OV-3 ovarian): > 100 µM | TGI (SN12C renal): > 100 µM | TGI (SNB-19 CNS): > 100 µM | TGI (SNB-75 CNS): > 100 µM | TGI (SNB-78 CNS): 99.4 µM | TGI (SR leukemia): > 100 µM | TGI (SW-620 colon): > 100 µM | TGI (TK-10 renal): > 100 µM | TGI (U251 CNS): > 100 µM | TGI (UACC-257 melanoma): > 100 µM | TGI (UACC-62 melanoma): > 100 µM | TGI (UO-31 renal): > 100 µM | TGI (XF 498 CNS): > 100 µM
